Data from US11401254B2, “Substituted thiophenecarboxamides and analogues as antibacterials agents” (Bayer Aktiengesellschaft, priority 2018, dated 2022).

Experiments:
[1] = Log P by HPLC on reversed phase columns (EEC directive 79/831 Annex V.A8); assay type: physicochemical; details: for chromatographic logP: reversed phase HPLC columns
Description: In the above tables, measurement of Log P values was performed according to EEC directive 79/831 Annex V.A8 by HPLC (High Performance Liquid Chromatography) on reversed phase columns with the following methods: • ^[a]
If more than one Log P value is available within the same method, all the values are given and separated by “+”.
Calibration was done with straight-chain alkan2-ones (with 3 to 16 carbon atoms) with known Log P values (measurement of Log P values using retention times with linear interpolation between successive alkanones). Lambda-max-values were determined using UV-spectra from 200 nm to 400 nm and the peak values of the chromatographic signals.

[2] = tested on: Xanthomonas campestris pv. campestris; assay: In vivo preventive test on Xanthomonas campestris pv. campestris (black rot on cabbage); details: Example C comparative table; same conditions as described in Example B; concentration not given
Description: Example B: In Vivo Preventive Test on Xanthomonas campestris pv. Campestris (Black Rot on Cabbage)
The tested compounds were prepared by homogenization in a mixture of acetone/Dimethyl sulfoxide/Tween®, and then diluted with water to obtain the desired concentration.
The young plants of cabbage were treated by spraying the compound prepared as described above. Control plants were treated only with an aqueous solution of acetone/Dimethyl sulfoxide/Tween®.
After 72 hours, the plants were contaminated by spraying the leaves with an aqueous bacteria suspension of Xanthomonas campestris pv. campestris. The contaminated cabbage plants were incubated for 8 or 10 days at 27° C. at 95% relative humidity.
The test was evaluated 8 or 10 days after the inoculation. 0% means an efficacy which corresponds to that of the control plants while an efficacy of 100% means that no disease was observed.
Compounds CMP3, CMP4, CMP5 and CMP6 were tested in an in vivo preventive test on Xanthomonas campestris pv. campestris (black rot on cabbage) in the same conditions as described in Example B.

[3] = tested on: Xanthomonas campestris pv. campestris; assay: Xanthomonas campestris pv. campestris in vitro cell test (bacteria growth in liquid culture); assay type: cell-based; details: 20 ppm of tested compound; 24 h of incubation
Description: Example A: Xanthomonas Campestris pv. Campestris In Vitro Cell Test
Culture medium: LB broth medium (Luria Broth Miller) Sigma
Inoculum: bacteria suspension
Compounds to be tested were solubilized in DMSO and the solution used to prepare the required range of concentrations. The final concentration of DMSO used in the assay was ≤1%.
Inoculum was prepared from a pre-culture of bacteria grown in liquid medium and diluted to the desired optical density (OD).
Compounds were evaluated for their ability to inhibit bacteria growth in liquid culture assay. The compounds were added in the desired concentrations to culture medium containing the bacteria suspension. After 24 h of incubation, the efficacy of compounds was determined by spectrometric measurement of bacteria growth. Inhibition was determined by comparing the absorbance values in wells containing the compounds with the absorbance in control wells without compounds.

[4] = method [a]: LC-UV, acidic range, 0.1% formic acid in water and acetonitrile as eluent

Row | Structure (SMILES) | chromatographic logP [1, 4] | chromatographic logP ([1]; value given in preparation example, method variant not stated) | LogP [1, 4] | Efficacy (%) [2] [%] | direct activity (inhibition of bacteria growth) [3]
1 | CC(C)CC(NC(=O)c1cc(Br)c(Br)s1)C(=O)O (centres unmarked) [CMP6, reference compound] | – | – | – | 15 | –
2 | Cc1c(C(=O)NC(CC(C)C)C(=O)O)sc(Br)c1Br (centres unmarked) [I.90] | – | – | – | >70 | –

Continued, in another order:

Row | chromatographic logP [1, 4] | chromatographic logP ([1]; value given in preparation example, method variant not stated) | LogP [1, 4] | Structure (SMILES) | Efficacy (%) [2] [%] | direct activity (inhibition of bacteria growth) [3]
3 | 4.32 | 4.32 | – | CCOC(=O)[C@@H](NC(=O)c1sc(Br)c(Br)c1C)C(C)C (racemic) [I.04, ethyl N-[(4,5-dibromo-3-methyl-2-thienyl)carbonyl]-valinate] | >90 | no direct activity
4 | – | – | 3.02^[a] | CCOC(=O)CNC(=O)c1sc(Br)c(Br)c1C [I.02] | >80 | no direct activity
5 | – | – | 2.39^[a] | Cc1c(C(=O)NC(C)C(=O)O)sc(Br)c1Br (centres unmarked) [I.79] | >70 | –
